The text below walks through data of PMC8466420, “Inflammatory and Cytotoxic Activities of Abietane Terpenoids from Nepeta bracteata Benth” (Molecules, 2021).

Format in all cases: cell-based
The test system of data set [1] is nitric oxide (NO) production in lipopolysaccharide (LPS)-stimulated RAW 264.7 cells. Briefly: Anti-inflammation assay: inhibition of NO production in LPS-stimulated RAW 264.7 macrophages. The settings on record: means ± SD of triplicate experiments. As for the experimental part: The anti-inflammatory activity of the isolated compounds was evaluated in lipopolysaccharide-stimulated RAW 264.7 macrophages using the […]. The RAW 264.7 macrophages were seeded in 96-well plates at a density of 1 × 10^4 cells per well for 24 h, followed by treatment with different extracts of identical purity for another 24 h. The compounds were dissolved in dimethyl sulfoxide (DMSO) and diluted appropriately just before cell treatments. Cells were incubated with the extract at indicated concentrations, with DMSO not exceeding 0.1% in all experiments. The cells were cultured in DMEM with 10% FBS and antibiotics (100 U/mL penicillin and 100 µg/mL streptomycin) at 37 °C with 5% CO2. […].

For another data set, the system named is RAW 264.7 macrophages. Briefly: RAW 264.7 macrophage viability test (MTT). The settings on record: compounds at 50 μM; for viability at 50 µM: Mus musculus, RAW264.7, 24 h, read-out: Cell Survival Rate (%) RAW 264.7 Macrophages. As for the experimental part:
The MTT colorimetric method was used to detect the effect of compounds 1–10 on the viability of RAW 264.7 macrophages. The RAW 264. 7 macrophages in the logarithmic growth phase were digested with trypsin to prepare a single-cell suspension, which was seeded in a 96-well plate at a density of 1 × 10^4 cells per well and cultured in a 5% CO2 incubator for 24 h at 37 °C, before discarding the supernatant. The blank control group was cultured with 10% FBS-containing DMEM, and the drug group was treated with aqueous solutions of compounds 1–10, with six replicate wells for each concentration. Incubation was continued in 5% CO2 at 37 °C. After 24 h of incubation, 10 μL of 5 mg/mL MTT was added to each well. The culture solution was removed after culturing for 4 h. Then, 100 μL of DMSO was added to each well, before shaking for 10 min to achieve complete dissolution. The optical density (OD) was measured at 492 nm using a microplate reader to calculate cell viability.

Data set [2] can be described thus: Cytotoxicity test against HCT-8 cells (MTT). The settings on record: human, means ± SD (n = 3), read-out: IC50 (μM) HCT-8 (cytotoxic activity). Here is the method: (§1) The cytotoxic activities of compounds 1–10 against HCT-8 cells were tested using the MTT colorimetric method. HCT-8 cells were cultivated on DMEM medium at 37 °C and 5% CO2. After diluting the DMEM medium, cells were seeded into 96-well sterile microplates (6 × 10^4 cells/well) and cultured with a series of various concentrations of tested compounds or adriamycin (positive control) for 24 h at 37 °C. After incubation, all compounds were tested at five concentrations (10−100 μM) for 1 h. Following this, the supernatant was removed, and all components were dissolved in 100% DMSO, at such an amount that there was a final DMSO concentration of 0.1% added to each well. The absorbance was measured using a microplate reader at a wavelength of 570 nm. […] The cell growth assay was repeated three times, and the IC50 values were calculated using Microsoft Excel software.

A further data set has as its system HCT-8 cells. Briefly: Cytotoxicity test against HCT-8 cells (MTT). The settings on record: 24 h, means ± SD (n = 3), read-out: IC50 (μM) HCT-8 (cytotoxic activity). As for the experimental part:
as §1

[3] abbreviates: Mus musculus, RAW264.7, 24 h treatment.

Broadly, the IC50 is the concentration at which inhibition is half-maximal. For `CC(C)(O)c1ccc2c(c1)CC[C@H]1[C@@](C)(C(=O)O)CCC[C@]21C` [Compound 6, angustanoic acid F], half-maximal inhibition in data set [1] (setting [3]) (IC50) was put at 36.2 ± 1.21 µM. For the same compound, in the data set with RAW 264.7 macrophages, the viability at 50 µM is 99.89 ± 0.13%. The 50% inhibitory concentration (IC50) at 24 h in data set [2] was over 50 µM.

For `CC(C)c1ccc2c(c1)[C@@H](O)C[C@H]1[C@@](C)(C=O)CCC[C@]21C` [Compound 2, nepetabrate B], in data set [1] (setting [3]), 19.2 ± 1.25 µM corresponded to half-maximal inhibition (IC50). The viability at 50 µM in the data set on RAW 264.7 macrophages turned out to be 88.26 ± 0.32%. Moreover, the half-maximal inhibitory concentration (IC50) at 24 h in data set [2] worked out at 36.3 ± 1.1 µM.

`C=C1[C@@H]2C[C@H](O)c3cc(C(C)C)ccc3[C@@]2(C)CC[C@@]1(C)O` [Compound 4, nepetabrate D] displayed an IC50 in data set [1] (setting [3]) of 18.8 ± 0.75 µM. Besides, the viability at 50 µM in the data set on RAW 264.7 macrophages was determined as 92.21 ± 0.19%. For the same compound, in data set [2], the IC50 at 24 h was 41.4 ± 0.91 µM.

Take `COc1cccc2c1C(=O)c1c(O)c3c(c(O)c1C2=O)C[C@@](O)(C(=O)CO)C[C@@H]3O[C@H]1C[C@H](N)[C@H](O)[C@H](C)O1` [Adriamycin, reference compound]: the half-inhibitory concentration (IC50) at 24 h in data set [2] stood at 1.78 ± 0.14 µM.

For the compound `CC(=O)O[C@H]1CCC(C)(C)[C@@H]2CCc3cc(C(C)C)ccc3[C@@]12CO` [Compound 1, nepetabrate A], the half-maximal inhibitory concentration (IC50) in data set [1] (setting [3]) was 38.2 ± 1.15 µM. The viability at 50 µM with RAW 264.7 macrophages came out at 97.93 ± 0.26%. Also, the IC50 at 24 h in data set [2] is over 50 µM.

`CC(=O)c1ccc2c(c1)CC[C@H]1[C@@](C)(C(=O)O)CCC[C@]21C` [Compound 9, angustanoic acid G] had a half-maximal inhibitory concentration (IC50) in data set [1] (setting [3]) of 42.3 ± 0.56 µM. The viability at 50 µM in the data set on RAW 264.7 macrophages was found to be 98.26 ± 0.18%. Also, the concentration for half-maximal inhibition (IC50) at 24 h in data set [2] is over 50 µM.

In data set [1] (setting [3]), `CC(=O)Oc1ccccc1C(=O)O` [Aspirin, reference compound] registered a half-maximal inhibitory concentration (IC50) of 15.9 ± 0.38 µM.

Take `CC1CC(=O)OCCNC1=O` (centres unmarked) [Compound 5, 6-methyl-1,4-oxazocane-5,8-dione]: the IC50 in data set [1] (setting [3]) is 18 ± 1.13 µM. Besides, the viability at 50 µM in the data set with RAW 264.7 macrophages came to 99.21 ± 0.15%. Moreover, the half-inhibitory concentration (IC50) at 24 h in data set [2] was over 50 µM.

Regarding `CC1=C(CO)[C@@H]2C[C@H](O)c3cc(C(C)C)ccc3[C@@]2(C)CC1` [Compound 3, nepetabrate C], the IC50 in data set [1] (setting [3]) turned out to be 22.3 ± 1.26 µM. The viability at 50 µM in the data set with RAW 264.7 macrophages stood at 99.84 ± 0.21%. Also, in data set [2], the IC50 at 24 h is over 50 µM.

For the compound “1-phenanthrenecarboxylic acid [Compound 8]”, the figures for the IC50 (in data set [1] (24 h treatment); in the data set on HCT-8 cells) were 37.5 ± 0.92 µM and over 50 µM, respectively. Moreover, the “Cell Survival Rate (%) RAW 264.7 Macrophages” value in the data set on RAW 264.7 macrophages (24 h) is on record as 99.12 ± 0.28%.

The compound `CC(C)c1ccc2c(c1)[C@@H](O)C[C@H]1[C@@](C)(C(=O)O)CCC[C@]21C` [Compound 7, 7a-hydroxycallitrisic acid] returned an IC50 in data set [1] (setting [3]) of 37.1 ± 0.81 µM. Also, the viability at 50 µM in the data set on RAW 264.7 macrophages is 98.75 ± 0.45%. The concentration for half-maximal inhibition (IC50) at 24 h in data set [2] was over 50 µM.

`CC(C)c1ccc2c(c1)CC[C@@H]1[C@](C)(CCC[C@]1(C)C(=O)O)O2` [Compound 10, jiadifenoic acid K]: the half-maximal inhibitory concentration (IC50) in data set [1] (setting [3]) was 46.3 ± 1.02 µM. Also, the viability at 50 µM in the data set on RAW 264.7 macrophages is 98.75 ± 0.2%. For the same compound, the concentration for half-maximal inhibition (IC50) at 24 h in data set [2] was over 50 µM.
